Reference: US6589992B2, “Inhibiting collagen-induced platelet aggregation” (Parker Hughes Institute, priority 1999, dated 2003)
“Also recorded” adds a separate entry of the source. Where two headings read alike, the source gives them in different places.

Assays:
platelets [1] = assay: Collagen-induced platelet aggregation (aggregometer); format: cell-based, human; conditions: for IC50: 30 min pretreatment
Protocol: Platelet aggregation with respect to control was monitored in a Chronolog Model 560 Dual Chamber Platelet Aggregometer.
Controls were treated with vehicle (PBS supplemented with 1% DMSO) alone. The treated PRP samples were diluted 1:4 with sterile normal saline and platelets were stimulated with collagen (2 μg/mL or 5 μg/mL, Chronolog Inc., Philadelphia, Pa.) or thrombin (0.1 U/mL, Chronolog Inc., Philadelphia, Pa.) as agonists under stirred conditions. Platelet aggregation was monitored in a platelet aggregometer (Model 560 Dual Chamber-Instrument, Chronolog Ind., Philadelphia, Pa.) for 5 minutes.

human platelets = assay: Electron microscopy (HR-LVSEM, TEM) of platelet shape changes; format: cell-based; conditions: 100 μM
Protocol: HR-LVSEM was utilized for topographical imaging of the platelet surface membrane, as previously reported (D'Cruz et al., 1998). […] Treated platelets were then stimulated with collagen (10 μg/mL) or thrombin (0.1 U/mL) for 10 seconds (FIGS. 3A-3F). 3% glutaraldehyde was added to stop the reaction. Samples were prepared for HR-LVSEM as previously described (D'Cruz et al., 1998) and analyzed using a Hitachi S-900 SEM instrument (Hitachi Instruments, Gaithersburg, Md.) at an accelerating voltage of 2 kV and […].
Samples were then prepared for TEM as previously described (White, 1983). Briefly, 0.1% glutaraldehyde was added to stop the reaction. Following a brief centrifugation, the sample pellets were layered with 3% glutaraldehyde for 40 minutes at room temperature. The samples were then postfixed in 1% OsO4 for 1 hour at 4° C., rinsed three times in distilled water at room temperature, dehydrated in a graded ethanol series (25, 50, 75, 90, 95 and 100%) and 100% propylene oxide. The samples were embedded in Embed 812 (Electron Microscopy Science, Washington, Pa.). Silver sections were picked up on mesh grids, stained 10 minutes in 1% uranyle acetate/70% ethanol, and 10 minutes in Reynold's lead citrate. […] True magnifications were determined by photographing a calibration grid at each magnification step on the microscope and using this scale to determine final print enlargements.

PLCγ2 = assay: Collagen-induced PLCγ2 tyrosine phosphorylation in platelets (immunoprecipitation/Western blot); format: cell-based, human; conditions: 100 μM, 30 min pretreatment; 2 μg/mL collagen
From the text: The membrane was stripped and re-probed with antibodies raised against PLCγ2. An increase in the level of phosphorylated PLCγ2 was seen between 30 and 45 seconds following collagen stimulation.

platelets [2] = assay: Inositol-1,4,5-trisphosphate production in collagen-stimulated platelets; format: cell-based, human
Protocol: Collagen stimulation was terminated by the addition of ice-cold 20% perchloric acid. Inositol-1,4,5,-trisphosphate (Ins-1,4,5-P3) levels were measured by using a D-myo-[^3H]inositol-1,4,5-trisphosphate assay system purchased from Amersham (Arlington Heights, Ill.), as reported (Uckun et al., 1991) (FIG. 2B). This highly sensitive assay is based on the competition between nonradiolabeled Ins-1,4,5-P3 in the cellular extracts and a fixed quantity of a high specific activity [^3H] Ins-1,4,5-P3 tracer for a limited number of binding sites on a Ins-1,4,5-P3-specific and sensitive bovine adrenal binding protein (Uckun et al., 1991).
Platelets were stimulated at 37 degrees C. with 2 μg/ml collagen for various times. Activation was stopped by the addition of ice cold 20% perchloric acid. The amount of inositol 1,4,5-triphosphate production was measured using a detection kit from Amersham.

platelets [3] = assay: Serotonin release from collagen-stimulated platelets; format: cell-based, human; conditions: LFM-A13 treated, N=4
Protocol: Release of serotonin from collagen (10 and 20 μg/mL)-stimulated platelets was measured using a serotonin detection kit (Immunotech, Marseille, France) according to the manufacturer's specifications. Sonicated platelets were used for measurement of the total serotonin content of platelets.

mice [4] = assay: Tail bleeding time in mice; format: in vivo
Protocol: (§1) Mice were placed in a tube holder and tail bleeding was performed with a 2 mm cut from the protruding tail tip, the tail was placed vertically into 10 mL normal saline in a 37° C. water bath and bleeding times determined as previously described (Teng et al., 1997). Platelet plug formation and clotting times on the eye after retro-orbital venupuncture were evaluated using published methods (Sheu et al., 1995).

mice [5] = assay: Platelet plug formation and clotting time after retro-orbital venupuncture in mice; format: in vivo; conditions: for clotting time % Control / Mean Clotting Time: C57BL/6 mice; for Mean Clotting Time: n = 3
Protocol: as §1
The blood of XID mice clotted approximately two minutes later than the CBA control mice. Following this pattern, blood from chronically treated mice also clotted two minutes later than control. […]

[6] = 40 mg/kg, after retroorbital venupuncture

## C/C(O)=C(\C#N)C(=O)Nc1cc(Br)ccc1Br [LFM-A13, α-cyano-β-hydroxy-β-methyl-N-(2,5-dibromophenyl)-propenamide]
Platelets [1]; 100 μM, 30 minute pretreatment, 2 μg/mL collagen
  collagen-induced platelet aggregation at 100 μM: completely prevented
Platelets [1]; Homo sapiens, Platelet, read-out: IC50 inhibition of platelet aggregation, 2 μg/mL collagen
  IC50: 2780 nM
Platelets [1]; Homo sapiens, Platelet, read-out: IC50 inhibition of platelet aggregation, 5 μg/mL collagen
  IC50: 66100 nM
Platelets [1]; PRP treated 20 min or 24 hours, collagen 2 or 5 μg/mL
  platelet response to high and low doses of collagen, PRP: significantly reduced
Platelets [1]; read-out: IC50 inhibition of platelet aggregation, 2 μg/mL collagen
  IC50: 2800 ± 930 nM
Human platelets; 30 min, collagen 10 μg/mL, 10 seconds
  collagen-induced pseudopod formation: inhibited collagen-induced pseudopod formation; also recorded: no pseudopods were observed
Human platelets; thrombin 0.1 U/mL
  thrombin-induced shape changes: did not inhibit the thrombin-induced shape changes
PLCγ2
  collagen-induced tyrosine phosphorylation of PLCγ2: no enhanced tyrosine phosphorylation of PLCγ2 was detected; also recorded: No phosphorylation of PLCγ2 was noted
Platelets [2]; 100 μM LFM-A13 alone, no collagen
  % control inositol 1,4,5-triphosphate production (peak response): 75 % control
Platelets [2]; 100 μM LFM-A13 and 2 μg/ml collagen
  % control inositol 1,4,5-triphosphate production (peak response): 75 % control
Platelets [2]; 100 μM pretreatment
  Ins-1,4,5-P3 levels between 30 and 60 seconds after collagen stimulation: remained at baseline
Platelets [2]; 100 μM, 30 min, 2 μg/ml collagen
  collagen-stimulated PI-PLC activity: inhibited collagen-stimulated PI-PLC activity
Platelets [2]; 100 μM, 30 min pretreatment, 30 seconds after collagen stimulation
  Ins-1,4,5-P3 levels: 17.8±1.4 pmols/10^9 platelets
Platelets [2]; Homo sapiens, Platelet, read-out: % inhibition of inositol 1,4,5-triphosphate production
  inhibition at 100 µM: 100%
Platelets [3]
  serotonin in platelet supernatants: 369 ± 14 nM
Mice [4]; 20 mg/kg
  prolongation of tail bleeding time versus vehicle: 4.9 fold
Mice [4]; 20 mg/kg i.v., N=5
  average tail bleeding time: 7.4 ± 1.0 min
Mice [4]; 40 mg/kg
  prolongation of tail bleeding time versus vehicle: 5.6 fold
Mice [4]; 40 mg/kg i.v., N=5
  average tail bleeding time: 8.5 ± 0.6 min
Mice [4]; 80 mg/kg
  prolongation of tail bleeding time versus vehicle: 6.3 fold
Mice [4]; 80 mg/kg i.v., N=12
  average tail bleeding time: 9.5 ± 0.5 min
Mice [5]; [6]
  clotting (eye clot) time: 2.6 ± 0.4 min
  local platelet plug (eye plug) formation time: 45 ± 4 s
Mice [5]; 25 mg/kg chronic 36 days
  clotting time % Control: 231%
  Mean Clotting Time: 3.7 min
Mice [5]; 40 mg/kg acute 1 hour
  clotting time % Control: 164%
  Mean Clotting Time: 2.6 min
